These are literature values, as cited in patent US8986736B2, “Method for delivering particulate drugs to tissues” (Baxter International Inc., priority 2003, dated 2015).

For the series, the system named is HIV-infected macrophages.

In the case of `CC(C)(C)NC(=O)[C@@H]1C[C@@H]2CCCC[C@@H]2CN1C[C@@H](O)[C@H](Cc1ccccc1)NC(=O)[C@H](CC(N)=O)NC(=O)c1ccc2ccccc2n1` [saquinavir], the “activity in chronically HIV-infected macrophages” value (100 nM, in solution) is “completely inactive”. In addition, the antiviral activity entry (aqueous solution, HIV-infected macrophages) is “little antiviral activity”.
